Measurements taken from US10316035B2, “Triazolopyridine inhibitors of myeloperoxidase” (BRISTOL-MYERS SQUIBB COMPANY, priority 2015, dated 2019).

target: T1, myeloperoxidase (MPO) (Homo sapiens, UniProt P05164); assay: MPO peroxidation assay (Amplex Red assay); format: biochemical; conditions: MPO peroxidation, potency range class; read-out: Amplex Red IC50
T1 sequence (P05164 49-745): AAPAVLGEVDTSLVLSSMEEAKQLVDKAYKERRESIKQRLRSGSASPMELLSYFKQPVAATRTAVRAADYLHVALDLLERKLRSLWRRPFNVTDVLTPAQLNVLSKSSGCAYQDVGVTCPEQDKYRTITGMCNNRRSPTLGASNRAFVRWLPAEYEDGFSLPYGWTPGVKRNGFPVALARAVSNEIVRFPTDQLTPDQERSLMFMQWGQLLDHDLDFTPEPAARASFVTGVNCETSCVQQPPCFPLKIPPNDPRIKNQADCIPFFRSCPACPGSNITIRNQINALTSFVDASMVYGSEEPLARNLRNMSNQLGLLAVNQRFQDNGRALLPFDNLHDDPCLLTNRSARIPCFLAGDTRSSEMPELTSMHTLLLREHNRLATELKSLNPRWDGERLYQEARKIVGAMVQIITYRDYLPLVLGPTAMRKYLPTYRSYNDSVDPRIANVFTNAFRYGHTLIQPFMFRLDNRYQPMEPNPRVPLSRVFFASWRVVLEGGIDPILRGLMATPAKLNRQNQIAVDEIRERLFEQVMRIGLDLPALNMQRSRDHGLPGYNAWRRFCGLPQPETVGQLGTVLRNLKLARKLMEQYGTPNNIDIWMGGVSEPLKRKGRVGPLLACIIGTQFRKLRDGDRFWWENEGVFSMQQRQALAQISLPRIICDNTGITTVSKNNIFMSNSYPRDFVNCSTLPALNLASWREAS
How it was run: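 Peroxidase turnover of Amplex Red to fluorescent resorufin (Ex 535/Em 590 nm) was followed for 15 min in 100 mM KPi, pH 7.4, after 10 min room-temperature preincubation of compound with 200 pM enzyme plus 40 nM H2O2. The substrate mix contained 200 μM Amplex Red and 10 mM H2O2. IC50s came from linear-phase rates (180–540 s) fitted with a Hill equation.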

`Nc1cc(OCc2ccc(-c3ccc(N4CCNCC4)nc3)cc2OC(F)(F)F)c2nn[nH]c2n1` [Example 297, 7-((4-(6-(piperazin-1-yl)pyridin-3-yl)-2-(trifluoromethoxy)benzyl)oxy)-3H-[1,2,3] triazolo[4,5-b]pyridin-5-amine] and `Nc1cc(OCc2ccc(-c3ccc(N4CCOCC4)nc3)cc2OC(F)(F)F)c2nn[nH]c2n1` [Example 303, 7-((4-(6-morpholinopyridin-3-yl)-2-(trifluoromethoxy)benzyl)oxy)-3H-[1,2,3] triazolo[4,5-b]pyridin-5-amine] fall in the same range of IC50: 1 to 100 nM for the first, 1 to 100 nM for the second.

`CN1CCN(c2cc(-c3ccc(COc4cc(N)nc5[nH]nnc45)c(OC(F)(F)F)c3)ccn2)CC1` [Example 299, 7-((4-(2-(4-methylpiperazin-1-yl)pyridin-4-yl)-2-(trifluoromethoxy)benzyl)oxy)-3H-[1,2,3] triazolo[4,5-b]pyridin-5-amine] and `CN1CCN(c2ccc(-c3ccc(COc4cc(N)nc5[nH]nnc45)c(OC(F)(F)F)c3)cn2)CC1` [Example 300, 7-((4-(6-(4-methylpiperazin-1-yl)pyridin-3-yl)-2-(trifluoromethoxy)benzyl)oxy)-3H-[1,2,3] triazolo[4,5-b]pyridin-5-amine] fall in the same range of IC50: 1 to 100 nM for the first, 1 to 100 nM for the second.

`Nc1cc(OCc2ccc(-c3cccc(S(N)(=O)=O)c3)cc2OC(F)(F)F)c2nn[nH]c2n1` [Example 301, 4′-(((5-amino-3H-[1,2,3]triazolo[4,5-b]pyridin-7-yl)oxy)methyl)-3′-(trifluoromethoxy)-[1,1′-biphenyl]-3-sulfonamide] and `Nc1cc(OCc2ccc(-c3ccnc(O)c3)cc2OC(F)(F)F)c2nn[nH]c2n1` [Example 304, 4-(4-(((5-amino-3H-[1,2,3]triazolo[4,5-b]pyridin-7-yl)oxy)methyl)-3-(trifluoromethoxy)phenyl)pyridin-2-ol] fall in the same range of IC50: 1 to 100 nM for the first, 1 to 100 nM for the second.

`Nc1cc(OCc2ccc(-c3ccc(Cl)nc3)cc2OC(F)(F)F)c2nn[nH]c2n1` [Example 302, 7-((4-(6-chloropyridin-3-yl)-2-(trifluoromethoxy)benzyl)oxy)-3H-[1,2,3] triazolo[4,5-b]pyridin-5-amine] and `Nc1cc(OCc2ccc(-c3ccc(O)nc3)cc2OC(F)(F)F)c2nn[nH]c2n1` [Example 307, 5-(4-(((5-amino-3H-[1,2,3]triazolo[4,5-b]pyridin-7-yl)oxy)methyl)-3-(trifluoromethoxy)phenyl)pyridin-2-ol] fall in the same range of IC50: 1 to 100 nM for the first, 1 to 100 nM for the second.

`Nc1cc(OCc2ccc(-c3cncc(F)c3)cc2OC(F)(F)F)c2nn[nH]c2n1` [Example 308, 7-((4-(5-fluoropyridin-3-yl)-2-(trifluoromethoxy)benzyl)oxy)-3H-[1,2,3] triazolo[4,5-b]pyridin-5-amine] and `COc1cc(-c2ccc(COc3cc(N)nc4[nH]nnc34)c(OC(F)(F)F)c2)c(F)cn1` [Example 309, 7-((4-(5-fluoro-2-methoxypyridin-4-yl)-2-(trifluoromethoxy)benzyl)oxy)-3H-[1,2,3] triazolo[4,5-b]pyridin-5-amine] fall in the same range of IC50: 1 to 100 nM for the first, 1 to 100 nM for the second.

`COc1ccc(-c2ccc(COc3cc(N)nc4[nH]nnc34)c(C#N)c2)cn1` [Example 310, 2-(((5-amino-3H-[1,2,3]triazolo[4,5-b]pyridin-7-yl)oxy)methyl)-5-(6-methoxypyridin-3-yl)benzonitrile] and `N#Cc1cc(-c2ccc(N)nc2)ccc1COc1cc(N)nc2[nH]nnc12` [Example 311, 2-(((5-amino-3H-[1,2,3]triazolo[4,5-b]pyridin-7-yl)oxy)methyl)-5-(6-aminopyridin-3-yl)benzonitrile] fall in the same range of IC50: 1 to 100 nM for the first, 1 to 100 nM for the second.

`N#Cc1cc(-c2ccc(O)nc2)ccc1COc1cc(N)nc2[nH]nnc12` [Example 312, 2-(((5-amino-3H-[1,2,3]triazolo[4,5-b]pyridin-7-yl)oxy)methyl)-5-(6-hydroxypyridin-3-yl)benzonitrile] and `N#Cc1cc(-c2ccc(CO)nc2)ccc1COc1cc(N)nc2[nH]nnc12` [Example 313, 2-(((5-amino-3H-[1,2,3]triazolo[4,5-b]pyridin-7-yl)oxy)methyl)-5-(6-(hydroxymethyl)pyridin-3-yl)benzonitrile] fall in the same range of IC50: 1 to 100 nM for the first, 1 to 100 nM for the second.

`COc1ncc(-c2ccc(COc3cc(N)nc4[nH]nnc34)c(C#N)c2)cn1` [Example 314, 2-(((5-amino-3H-[1,2,3]triazolo[4,5-b]pyridin-7-yl)oxy)methyl)-5-(2-methoxypyrimidin-5-yl)benzonitrile] and `CN(C)c1ncc(-c2ccc(COc3cc(N)nc4[nH]nnc34)c(C#N)c2)cn1` [Example 317, 2-(((5-amino-3H-[1,2,3]triazolo[4,5-b]pyridin-7-yl)oxy)methyl)-5-(2-(dimethylamino)pyrimidin-5-yl)benzonitrile] fall in the same range of IC50: 1 to 100 nM for the first, 1 to 100 nM for the second.

`N#Cc1cc(-c2ccc(C(F)(F)F)nc2)ccc1COc1cc(N)nc2[nH]nnc12` [Example 315, 2-(((5-amino-3H-[1,2,3]triazolo[4,5-b]pyridin-7-yl)oxy)methyl)-5-(6-(trifluoromethyl)pyridin-3-yl)benzonitrile] and `N#Cc1ccc(-c2ccc(COc3cc(N)nc4[nH]nnc34)c(C#N)c2)cn1` [Example 325, 5-(4-(((5-amino-3H-[1,2,3]triazolo[4,5-b]pyridin-7-yl)oxy)methyl)-3-cyanophenyl) picolinonitrile] fall in the same range of IC50: 1 to 100 nM for the first, 1 to 100 nM for the second.

`N#Cc1cc(-c2ccc(C3CC3)nc2)ccc1COc1cc(N)nc2[nH]nnc12` [Example 316, 2-(((5-amino-3H-[1,2,3]triazolo[4,5-b]pyridin-7-yl)oxy)methyl)-5-(6-cyclopropylpyridin-3-yl)benzonitrile] and `N#Cc1cc(-c2ccc(CN)nc2)ccc1COc1cc(N)nc2[nH]nnc12` [Example 328, 2-(((5-amino-3H-[1,2,3]triazolo[4,5-b]pyridin-7-yl)oxy)methyl)-5-(6-(aminomethyl)pyridin-3-yl)benzonitrile] fall in the same range of IC50: 1 to 100 nM for the first, 1 to 100 nM for the second.

`CC(=O)N1CCN(c2ccc(-c3ccc(COc4cc(N)nc5[nH]nnc45)c(C#N)c3)cn2)CC1` [Example 318, 5-(6-(4-acetylpiperazin-1-yl)pyridin-3-yl)-2-(((5-amino-3H-[1,2,3]triazolo[4,5-b]pyridin-7-yl)oxy)methyl) benzonitrile] and `CN1CCN(c2ccc(-c3ccc(COc4cc(N)nc5[nH]nnc45)c(C#N)c3)cn2)CC1` [Example 319, 2-(((5-amino-3H-[1,2,3]triazolo[4,5-b]pyridin-7-yl)oxy)methyl)-5-(6-(4-methylpiperazin-1-yl)pyridin-3-yl)benzonitrile] fall in the same range of IC50: 1 to 100 nM for the first, 1 to 100 nM for the second.

First: N#Cc1cc(-c2ccc(N3CCCCC3)nc2)ccc1COc1cc(N)nc2[nH]nnc12 [Example 320, 2-(((5-amino-3H-[1,2,3]triazolo[4,5-b]pyridin-7-yl)oxy)methyl)-5-(6-(piperidin-1-yl)pyridin-3-yl)benzonitrile]
Second: N#Cc1cc(-c2ccc(N3CCCC3)nc2)ccc1COc1cc(N)nc2[nH]nnc12 [Example 326, 2-(((5-amino-3H-[1,2,3]triazolo[4,5-b]pyridin-7-yl)oxy)methyl)-5-(6-(pyrrolidin-1-yl)pyridin-3-yl)benzonitrile]
The IC50 of the first is higher: 101 to 999 nM for the first, 1 to 100 nM for the second.

`CN1CCN(c2ncc(-c3ccc(COc4cc(N)nc5[nH]nnc45)c(C#N)c3)cn2)CC1` [Example 321, 2-(((5-amino-3H-[1,2,3]triazolo[4,5-b]pyridin-7-yl)oxy)methyl)-5-(2-(4-methylpiperazin-1-yl)pyrimidin-5-yl)benzonitrile] and `N#Cc1cc(-c2cnc(N3CCNCC3)nc2)ccc1COc1cc(N)nc2[nH]nnc12` [Example 329, 2-(((5-amino-3H-[1,2,3]triazolo[4,5-b]pyridin-7-yl)oxy)methyl)-5-(2-(piperazin-1-yl)pyrimidin-5-yl)benzonitrile] fall in the same range of IC50: 1 to 100 nM for the first, 1 to 100 nM for the second.

`CS(=O)(=O)c1cncc(-c2ccc(COc3cc(N)nc4[nH]nnc34)c(C#N)c2)c1` [Example 322, 2-(((5-amino-3H-[1,2,3]triazolo[4,5-b]pyridin-7-yl)oxy)methyl)-5-(5-(methylsulfonyl)pyridin-3-yl)benzonitrile] and `COc1ncc(-c2ccc(COc3cc(N)nc4[nH]nnc34)c(C#N)c2)cc1F` [Example 323, 2-(((5-amino-3H-[1,2,3]triazolo[4,5-b]pyridin-7-yl)oxy)methyl)-5-(5-fluoro-6-methoxypyridin-3-yl)benzonitrile] fall in the same range of IC50: 1 to 100 nM for the first, 1 to 100 nM for the second.

`N#Cc1cc(-c2ccc(F)nc2F)ccc1COc1cc(N)nc2[nH]nnc12` [Example 324, 2-(((5-amino-3H-[1,2,3]triazolo[4,5-b]pyridin-7-yl)oxy)methyl)-5-(2,6-difluoropyridin-3-yl)benzonitrile] and `N#Cc1cc(-c2ccc(N3CCNCC3)nc2)ccc1COc1cc(N)nc2[nH]nnc12` [Example 327, 2-(((5-amino-3H-[1,2,3]triazolo[4,5-b]pyridin-7-yl)oxy)methyl)-5-(6-(piperazin-1-yl)pyridin-3-yl)benzonitrile] fall in the same range of IC50: 1 to 100 nM for the first, 1 to 100 nM for the second.
